In the supplement of paper PMC10733146:

Assays:
Experiment in all cases: viability relative to DMSO control (fraction); higher = less drug effect (more viable cells)
Conditions in all cases: 48 h
[1] = system: primary AML patient cells (S056)
Outline: (§1)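 Viability was quantified by CellTiter-Glo luminescence and related to the median of 16 inner DMSO wells. Before that, primary mononuclear tumour cells, fresh or cryopreserved and Ficoll-isolated from blood or bone marrow or prepared from processed lymph node, were plated at 4 × 10^4 cells per well in 384-well plates containing pre-plated compounds at five concentrations, one well each. Plates were incubated in RPMI-1640 with penicillin/streptomycin, L-glutamine and human serum at 37 °C and 5% CO2 for 48 h.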

[2] = system: primary T-NHL patient cells (S058)
Outline: as §1

[3] = system: primary ALL patient cells (S048)
Outline: as §1

[4] = system: primary AML patient cells (S012)
Outline: as §1

[5] = system: primary CLL patient cells (S031)
Outline: as §1

[6] = system: primary DLBCL patient cells (S076)
Outline: as §1

[7] = system: primary AML patient cells (S079)
Outline: as §1

[8] = system: primary AML patient cells (S019)
Outline: as §1

[9] = system: primary ALL patient cells (S088)
Outline: as §1

[10] = system: primary MCL patient cells (S063)
Outline: as §1

[11] = system: primary MCL patient cells (S041)
Outline: as §1

[12] = system: primary AML patient cells (S011)
Outline: as §1

[13] = system: primary FL patient cells (S022)
Outline: as §1

[14] = system: primary AML patient cells (S006)
Outline: as §1

[15] = system: primary DLBCL patient cells (S049)
Outline: as §1

[16] = system: primary AML patient cells (S085)
Outline: as §1

[17] = system: primary FL patient cells (S087)
Outline: as §1

O=C(c1cc(Cc2n[nH]c(=O)c3ccccc23)ccc1F)N1CCN(C(=O)C2CC2)CC1 [Olaparib]
viability ([1]; 0.024 µM): 1.05
viability ([1]; 0.12 µM): 0.922
viability ([1]; 0.6 µM): 1.05
viability ([1]; 3 µM): 1.15
viability ([1]; 15 µM): 1.17
viability ([2]; 0.024 µM): 1.09
viability ([2]; 0.12 µM): 1.11
viability ([2]; 0.6 µM): 1.18
viability ([2]; 3 µM): 1.13
viability ([2]; 15 µM): 0.999
viability ([3]; 0.024 µM): 0.685
viability ([3]; 0.12 µM): 0.799
viability ([3]; 0.6 µM): 0.786
viability ([3]; 3 µM): 0.771
viability ([3]; 15 µM): 0.7
viability ([4]; 0.024 µM): 0.928
viability ([4]; 0.12 µM): 0.976
viability ([4]; 0.6 µM): 0.955
viability ([4]; 3 µM): 0.925
viability ([4]; 15 µM): 0.876
viability ([5]; 0.024 µM): 0.814
viability ([5]; 0.12 µM): 0.89
viability ([5]; 0.6 µM): 0.913
viability ([5]; 3 µM): 0.829
viability ([5]; 15 µM): 0.854
viability ([6]; 0.024 µM): 0.91
viability ([6]; 0.12 µM): 1.05
viability ([6]; 0.6 µM): 1.12
viability ([6]; 3 µM): 1
viability ([6]; 15 µM): 0.955
viability ([7]; 0.024 µM): 0.828
viability ([7]; 0.12 µM): 0.844
viability ([7]; 0.6 µM): 0.898
viability ([7]; 3 µM): 0.893
viability ([7]; 15 µM): 0.815
viability ([8]; 0.024 µM): 0.851
viability ([8]; 0.12 µM): 0.939
viability ([8]; 0.6 µM): 0.91
viability ([8]; 3 µM): 0.889
viability ([8]; 15 µM): 0.893
viability ([9]; 0.024 µM): 0.579
viability ([9]; 0.12 µM): 0.775
viability ([9]; 0.6 µM): 0.788
viability ([9]; 3 µM): 0.821
viability ([9]; 15 µM): 0.787
viability ([10]; 0.024 µM): 0.872
viability ([10]; 0.12 µM): 0.936
viability ([10]; 0.6 µM): 0.893
viability ([10]; 3 µM): 0.933
viability ([10]; 15 µM): 0.886
viability ([11]; 0.024 µM): 0.845
viability ([11]; 0.12 µM): 0.889
viability ([11]; 0.6 µM): 0.93
viability ([11]; 3 µM): 0.933
viability ([11]; 15 µM): 0.895
viability ([12]; 0.024 µM): 0.832
viability ([12]; 0.12 µM): 0.871
viability ([12]; 0.6 µM): 0.873
viability ([12]; 3 µM): 0.799
viability ([12]; 15 µM): 0.603
viability ([13]; 0.024 µM): 0.828
viability ([13]; 0.12 µM): 1.07
viability ([13]; 0.6 µM): 0.937
viability ([13]; 3 µM): 0.866
viability ([13]; 15 µM): 0.875
viability ([14]; 0.024 µM): 0.94
viability ([14]; 0.12 µM): 0.986
viability ([14]; 0.6 µM): 1.01
viability ([14]; 3 µM): 0.884
viability ([14]; 15 µM): 0.722
viability ([15]; 0.024 µM): 0.857
viability ([15]; 0.12 µM): 0.937
viability ([15]; 0.6 µM): 0.92
viability ([15]; 3 µM): 0.894
viability ([15]; 15 µM): 0.735
viability ([16]; 0.024 µM): 0.861
viability ([16]; 0.12 µM): 0.866
viability ([16]; 0.6 µM): 0.988
viability ([16]; 3 µM): 0.793
viability ([16]; 15 µM): 0.992
viability ([17]; 0.024 µM): 0.882
viability ([17]; 0.12 µM): 0.916
viability ([17]; 0.6 µM): 0.911
viability ([17]; 3 µM): 0.912
viability ([17]; 15 µM): 0.845

C[C@@H](Oc1cc(-c2cnn(C3CCNCC3)c2)cnc1N)c1c(Cl)ccc(F)c1Cl [Crizotinib]
viability ([1]; 0.024 µM): 1.13
viability ([1]; 0.12 µM): 0.919
viability ([1]; 0.6 µM): 1.07
viability ([1]; 3 µM): 0.857
viability ([1]; 15 µM): 0.084
viability ([2]; 0.024 µM): 0.908
viability ([2]; 0.12 µM): 1.01
viability ([2]; 0.6 µM): 0.903
viability ([2]; 3 µM): 0.812
viability ([2]; 15 µM): 0.335
viability ([3]; 0.024 µM): 0.999
viability ([3]; 0.12 µM): 1.04
viability ([3]; 0.6 µM): 0.989
viability ([3]; 3 µM): 0.638
viability ([3]; 15 µM): 0.0947
viability ([4]; 0.024 µM): 1
viability ([4]; 0.12 µM): 1.06
viability ([4]; 0.6 µM): 0.999
viability ([4]; 3 µM): 0.992
viability ([4]; 15 µM): 0.163
viability ([5]; 0.024 µM): 1.1
viability ([5]; 0.12 µM): 1.08
viability ([5]; 0.6 µM): 1.12
viability ([5]; 3 µM): 0.712
viability ([5]; 15 µM): 0.194
viability ([6]; 0.024 µM): 0.938
viability ([6]; 0.12 µM): 1.03
viability ([6]; 0.6 µM): 0.999
viability ([6]; 3 µM): 0.77
viability ([6]; 15 µM): 0.17
viability ([7]; 0.024 µM): 0.977
viability ([7]; 0.12 µM): 0.953
viability ([7]; 0.6 µM): 0.872
viability ([7]; 3 µM): 0.659
viability ([7]; 15 µM): 0.256
viability ([8]; 0.024 µM): 0.982
viability ([8]; 0.12 µM): 1.11
viability ([8]; 0.6 µM): 0.911
viability ([8]; 3 µM): 0.665
viability ([8]; 15 µM): 0.298
viability ([9]; 0.024 µM): 0.93
viability ([9]; 0.12 µM): 0.956
viability ([9]; 0.6 µM): 0.798
viability ([9]; 3 µM): 0.568
viability ([9]; 15 µM): 0.0811
viability ([10]; 0.024 µM): 0.942
viability ([10]; 0.12 µM): 1.03
viability ([10]; 0.6 µM): 1
viability ([10]; 3 µM): 0.896
viability ([10]; 15 µM): 0.254
viability ([11]; 0.024 µM): 0.97
viability ([11]; 0.12 µM): 1
viability ([11]; 0.6 µM): 0.879
viability ([11]; 3 µM): 0.79
viability ([11]; 15 µM): 0.221
viability ([12]; 0.024 µM): 0.996
viability ([12]; 0.12 µM): 1.04
viability ([12]; 0.6 µM): 0.822
viability ([12]; 3 µM): 0.358
viability ([12]; 15 µM): 0.0468
viability ([13]; 0.024 µM): 1.09
viability ([13]; 0.12 µM): 1.06
viability ([13]; 0.6 µM): 1.09
viability ([13]; 3 µM): 0.959
viability ([13]; 15 µM): 0.377
viability ([14]; 0.024 µM): 0.944
viability ([14]; 0.12 µM): 0.926
viability ([14]; 0.6 µM): 0.695
viability ([14]; 3 µM): 0.491
viability ([14]; 15 µM): 0.18
viability ([15]; 0.024 µM): 1.04
viability ([15]; 0.12 µM): 1.08
viability ([15]; 0.6 µM): 1.04
viability ([15]; 3 µM): 0.98
viability ([15]; 15 µM): 0.0442
viability ([16]; 0.024 µM): 1.04
viability ([16]; 0.12 µM): 1.02
viability ([16]; 0.6 µM): 0.822
viability ([16]; 3 µM): 0.434
viability ([16]; 15 µM): 0.18
viability ([17]; 0.024 µM): 0.979
viability ([17]; 0.12 µM): 1.03
viability ([17]; 0.6 µM): 0.999
viability ([17]; 3 µM): 0.821
viability ([17]; 15 µM): 0.111

CCc1nc(C(N)=O)c(Nc2ccc(N3CCC(N4CCN(C)CC4)CC3)c(OC)c2)nc1NC1CCOCC1 [Gilteritinib]
viability ([1]; 0.024 µM): 0.404
viability ([1]; 0.12 µM): 0.385
viability ([1]; 0.6 µM): 0.339
viability ([1]; 3 µM): 0.497
viability ([1]; 15 µM): 0.644
viability ([3]; 0.024 µM): 0.876
viability ([3]; 0.12 µM): 0.819
viability ([3]; 0.6 µM): 0.646
viability ([3]; 3 µM): 0.717
viability ([3]; 15 µM): 0.531
viability ([4]; 0.024 µM): 0.956
viability ([4]; 0.12 µM): 0.97
viability ([4]; 0.6 µM): 1
viability ([4]; 3 µM): 0.972
viability ([4]; 15 µM): 0.928
viability ([5]; 0.024 µM): 1.13
viability ([5]; 0.12 µM): 1
viability ([5]; 0.6 µM): 0.785
viability ([5]; 3 µM): 0.791
viability ([5]; 15 µM): 0.188
viability ([7]; 0.024 µM): 1.26
viability ([7]; 0.12 µM): 0.887
viability ([7]; 0.6 µM): 0.735
viability ([7]; 3 µM): 0.626
viability ([7]; 15 µM): 0.469
viability ([8]; 0.024 µM): 1.12
viability ([8]; 0.12 µM): 1.04
viability ([8]; 0.6 µM): 0.76
viability ([8]; 3 µM): 0.818
viability ([8]; 15 µM): 0.771
viability ([9]; 0.024 µM): 0.698
viability ([9]; 0.12 µM): 0.545
viability ([9]; 0.6 µM): 0.388
viability ([9]; 3 µM): 0.414
viability ([9]; 15 µM): 0.131
viability ([10]; 0.024 µM): 1.11
viability ([10]; 0.12 µM): 1.13
viability ([10]; 0.6 µM): 0.706
viability ([10]; 3 µM): 0.42
viability ([10]; 15 µM): 0.209
viability ([11]; 0.024 µM): 0.934
viability ([11]; 0.12 µM): 0.882
viability ([11]; 0.6 µM): 0.705
viability ([11]; 3 µM): 0.647
viability ([11]; 15 µM): 0.406
viability ([12]; 0.024 µM): 0.834
viability ([12]; 0.12 µM): 0.755
viability ([12]; 0.6 µM): 0.617
viability ([12]; 3 µM): 0.841
viability ([12]; 15 µM): 0.796
viability ([13]; 0.024 µM): 1.01
viability ([13]; 0.12 µM): 0.925
viability ([13]; 0.6 µM): 0.907
viability ([13]; 3 µM): 0.789
viability ([13]; 15 µM): 0.358
viability ([14]; 0.024 µM): 0.393
viability ([14]; 0.12 µM): 0.381
viability ([14]; 0.6 µM): 0.382
viability ([14]; 3 µM): 0.729
viability ([14]; 15 µM): 0.563
viability ([16]; 0.024 µM): 1.02
viability ([16]; 0.12 µM): 0.98
viability ([16]; 0.6 µM): 0.741
viability ([16]; 3 µM): 0.781
viability ([16]; 15 µM): 0.756
viability ([17]; 0.024 µM): 1.09
viability ([17]; 0.12 µM): 1.06
viability ([17]; 0.6 µM): 0.865
viability ([17]; 3 µM): 0.807
viability ([17]; 15 µM): 0.422
